Data from ChEMBL document CHEMBL3734751, “Discovery of novel, potent and low-toxicity angiotensin II receptor type 1 (AT1) blockers: Design, synthesis and biological evaluation of 6-substituted aminocarbonyl benzimidazoles with a chiral center” (Eur J Med Chem, 2015).
Positions count from the first letter of the chain named. pIC50: −log10 of the molar value. The source made the active and inactive calls. The rule behind the calls is not given here.

How the values were obtained:
[1] = target: T1, Type-1 angiotensin II receptor (Oryctolagus cuniculus, UniProt P34976); experiment: Antagonist activity against AT1 receptor in Japanese White rabbit aortic strips assessed as reduction in angiotension-2-induced contractile response after 60 mins by Schild's plot analysis; settings: read-out: pA2 (converted)
T1 sequence (P34976 whole entry): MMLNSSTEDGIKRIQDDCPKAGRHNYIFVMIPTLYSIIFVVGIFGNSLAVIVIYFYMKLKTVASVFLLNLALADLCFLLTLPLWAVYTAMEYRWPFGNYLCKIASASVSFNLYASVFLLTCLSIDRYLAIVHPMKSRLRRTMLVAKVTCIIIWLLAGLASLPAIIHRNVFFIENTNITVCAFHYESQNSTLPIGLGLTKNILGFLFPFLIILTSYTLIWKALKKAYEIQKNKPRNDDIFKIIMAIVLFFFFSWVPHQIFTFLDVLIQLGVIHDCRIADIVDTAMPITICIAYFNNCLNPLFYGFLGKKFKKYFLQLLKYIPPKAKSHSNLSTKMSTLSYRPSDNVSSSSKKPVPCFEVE

[2] = target: T2, Type-1 angiotensin II receptor (Homo sapiens, UniProt P30556); experiment: Displacement of [125I]Sar1Ile8-Ang2 from human AT1 receptor expressed in CHO-K1 cell membranes after 180 mins
T2 sequence (P30556 whole entry): T1 sequence (P34976 whole entry) with M2I, A49V, V254I, V270I, H272R, K311R, S349T, V353A

Rattus norvegicus [3] = experiment: Antihypertensive activity in spontaneously hypertensive rat assessed as decrease in mean blood pressure at 10 mg/kg, po within 24 hrs by tail-cuff plethysmography; assay type: functional, organism-based
Rattus norvegicus [4] = experiment: Antihypertensive activity in spontaneously hypertensive rat assessed as mean blood pressure at 30 mg/kg, po by tail-cuff plethysmography; assay type: functional, organism-based
[5] = Toxicity in Kunming mouse at 1.5 g/kg, po assessed as mortality after 2 weeks; assay type: organism-based; settings: in vivo, 1500 mg/kg
[6] = Toxicity in Kunming mouse at 1.3 g/kg, po assessed as mortality after 2 weeks; assay type: organism-based; settings: in vivo, 1300 mg/kg
[7] = Toxicity in Kunming mouse at 1.8 g/kg, po assessed as mortality after 2 weeks; assay type: organism-based; settings: in vivo, 1800 mg/kg
[8] = Toxicity in Kunming mouse at 2 g/kg, po assessed as mortality after 2 weeks; assay type: organism-based; settings: in vivo, 2000 mg/kg
[9] = Toxicity in orally dosed Kunming mouse assessed as mortality after 2 weeks; assay type: organism-based; settings: in vivo, po

Row | SMILES | Kb [1] | pIC50 [2] | further results
1 | CCCc1nc2c(C)cc(C(=O)N[C@H](CO)c3ccccc3)cc2n1Cc1ccc(-c2ccccc2C(=O)O)cc1 | 3.98 nM | 6.67 | –
2 | CCCc1nc2c(C)cc(C(=O)NC[C@@H](O)c3ccccc3)cc2n1Cc1ccc(-c2ccccc2C(=O)O)cc1 | – | 6.98 | –
3 | CCSc1nc2c(C)cc(C(=O)NC[C@@H](C)c3ccccc3)cc2n1Cc1ccc(-c2ccccc2C(=O)O)cc1 | – | 6.10 | –
4 | CCOc1nc2c(C)cc(C(=O)NC[C@H](C)c3ccccc3)cc2n1Cc1ccc(-c2ccccc2-c2nnn[nH]2)cc1 | – | 8.46 | –
5 | CCCc1nc2c(C)cc(C(=O)NC[C@@H](O)c3ccccc3)cc2n1Cc1ccc(-c2ccccc2-c2nnn[nH]2)cc1 | – | 6.97 | –
6 | CCCc1nc2c(C)cc(C(=S)NC[C@@H](C)c3ccccc3)cc2n1Cc1ccc(-c2ccccc2C(=O)O)cc1 | – | 6.13 | –
7 | CSc1nc2c(C)cc(C(=O)NC[C@@H](C)c3ccccc3)cc2n1Cc1ccc(-c2ccccc2-c2nnn[nH]2)cc1 | – | 6.16 | –
8 | CCCSc1nc2c(C)cc(C(=O)NC[C@@H](C)c3ccccc3)cc2n1Cc1ccc(-c2ccccc2C(=O)O)cc1 | – | 7.06 | –
9 | CSc1nc2c(C)cc(C(=O)NC[C@H](C)c3ccccc3)cc2n1Cc1ccc(-c2ccccc2C(=O)O)cc1 | – | 6.22 | –
10 | CCCc1nc2c(C)cc(C(=O)N[C@H](COC)c3ccccc3)cc2n1Cc1ccc(-c2ccccc2-c2nnn[nH]2)cc1 | 3.16 nM | 6.80 | –
11 | CCCc1nc2c(C)cc(C(=O)N[C@@H](CO)c3ccccc3)cc2n1Cc1ccc(-c2ccccc2C(=O)O)cc1 | 7.41 nM | 6.30 | –
12 | CCCc1nc2c(C)cc(C(=S)NC[C@H](C)c3ccccc3)cc2n1Cc1ccc(-c2ccccc2-c2nnn[nH]2)cc1 | – | 6.44 | –
13 | CCCc1nc2c(C)cc(C(=O)NC[C@H](O)c3ccccc3)cc2n1Cc1ccc(-c2ccccc2-c2nnn[nH]2)cc1 | – | 6.79 | –
14 | CCCc1nc2c(C)cc(C(=O)NC[C@H](C)c3ccccc3)cc2n1Cc1ccc(-c2ccccc2C(=O)O)cc1 | 5.62 nM | 7.64 | –
15 | CCCc1nc2c(C)cc(C(=O)N[C@@H](CO)c3ccccc3)cc2n1Cc1ccc(-c2ccccc2-c2nnn[nH]2)cc1 | 15.8 nM | 6.53 | –
16 | CCCc1nc2c(C)cc(C(=O)NC[C@@H](C)c3ccccc3)cc2n1Cc1ccc(-c2ccccc2C(=O)O)cc1 | 1.86 nM | 7.39 | –
17 | CSc1nc2c(C)cc(C(=O)NC[C@@H](C)c3ccccc3)cc2n1Cc1ccc(-c2ccccc2C(=O)O)cc1 | – | 5.86 | –
18 | CSc1nc2c(C)cc(C(=O)NC[C@H](C)c3ccccc3)cc2n1Cc1ccc(-c2ccccc2-c2nnn[nH]2)cc1 | – | 6.17 | –
19 | CCOc1nc2c(C)cc(C(=O)NC[C@@H](C)c3ccccc3)cc2n1Cc1ccc(-c2ccccc2-c2nnn[nH]2)cc1 | – | 8.20 | –
20 | CCCc1nc2c(C)cc(C(=O)N[C@@H](COC)c3ccccc3)cc2n1Cc1ccc(-c2ccccc2C(=O)O)cc1 | 3.16 nM | 7.15 | –
21 | CCCc1nc2c(C)cc(C(=O)N[C@H](COC)c3ccccc3)cc2n1Cc1ccc(-c2ccccc2C(=O)O)cc1 | 3.63 nM | 7.24 | –

Row | SMILES | Kb [1] | pIC50 [2] | further results
22 | CCCSc1nc2c(C)cc(C(=O)NC[C@H](C)c3ccccc3)cc2n1Cc1ccc(-c2ccccc2-c2nnn[nH]2)cc1 | – | 8.85 | Activity (Rattus norvegicus [3]): inactive
23 | CCCSc1nc2c(C)cc(C(=O)NC[C@H](C)c3ccccc3)cc2n1Cc1ccc(-c2ccccc2C(=O)O)cc1 | – | 7.21 | –
24 | CCOc1nc2c(C)cc(C(=O)NC[C@@H](C)c3ccccc3)cc2n1Cc1ccc(-c2ccccc2C(=O)O)cc1 | – | 7.24 | –
25 | CCCc1nc2c(C)cc(C(=O)NC[C@H](O)c3ccccc3)cc2n1Cc1ccc(-c2ccccc2C(=O)O)cc1 | – | 7.03 | –
26 | CCCCc1nc(Cl)c(CO)n1Cc1ccc(-c2ccccc2-c2nnn[nH]2)cc1 | – | – | Activity (Rattus norvegicus [4]): Active
27 | CCCc1nc2c(C)cc(C(=O)N[C@@H](C)c3ccccc3)cc2n1Cc1ccc(-c2ccccc2C(=O)O)cc1 | – | 7.71 | Activity (Rattus norvegicus [3]): inactive
28 | CCCc1nc2c(C)cc(C(=O)NCCc3ccccc3)cc2n1Cc1ccc(-c2ccccc2C(=O)O)cc1 | 8.13 nM | 7.64 | –
29 | CCSc1nc2c(C)cc(C(=O)NC[C@@H](C)c3ccccc3)cc2n1Cc1ccc(-c2ccccc2-c2nnn[nH]2)cc1 | – | 6.21 | –
30 | CCCc1nc2c(C)cc(C(=S)NC[C@@H](C)c3ccccc3)cc2n1Cc1ccc(-c2ccccc2-c2nnn[nH]2)cc1 | – | 6.46 | –
31 | CCCc1nc2c(C)cc(C(=S)NC[C@H](C)c3ccccc3)cc2n1Cc1ccc(-c2ccccc2C(=O)O)cc1 | – | 5.95 | –
32 | CCCSc1nc2c(C)cc(C(=O)NC[C@@H](C)c3ccccc3)cc2n1Cc1ccc(-c2ccccc2-c2nnn[nH]2)cc1 | – | 8.57 | Activity (Rattus norvegicus [3]): inactive
33 | CCCc1nc2c(C)cc(C(=O)N[C@@H](COC)c3ccccc3)cc2n1Cc1ccc(-c2ccccc2-c2nnn[nH]2)cc1 | 6.92 nM | 7.41 | –
34 | CCSc1nc2c(C)cc(C(=O)NC[C@H](C)c3ccccc3)cc2n1Cc1ccc(-c2ccccc2-c2nnn[nH]2)cc1 | – | 6.30 | –
35 | CCCCc1nc(Cl)c(CO)n1Cc1ccc(-c2ccccc2-c2nn[nH]n2)cc1 [LOSARTAN] | – | – | mortality at 336 h [5]: 30%; mortality at 336 h [6]: 10%; mortality at 336 h [7]: 80%; mortality at 336 h [8]: 90%; LD50 at 336 h [9]: 1570 mg/kg
36 | CCOc1nc2c(C)cc(C(=O)NC[C@H](C)c3ccccc3)cc2n1Cc1ccc(-c2ccccc2C(=O)O)cc1 | – | 8.14 | –
37 | CCSc1nc2c(C)cc(C(=O)NC[C@H](C)c3ccccc3)cc2n1Cc1ccc(-c2ccccc2C(=O)O)cc1 | – | 6.31 | –
38 | CCCc1nc2c(C)cc(C(=O)N[C@H](C)c3ccccc3)cc2n1Cc1ccc(-c2ccccc2C(=O)O)cc1 | – | 7.04 | –
39 | CCCc1nc2c(C)cc(C(=O)N[C@H](CO)c3ccccc3)cc2n1Cc1ccc(-c2ccccc2-c2nnn[nH]2)cc1 | 7.76 nM | 6.89 | –
40 | CCCc1nc2c(C)cc(C(=O)NCC(C)c3ccccc3)cc2n1Cc1ccc(-c2ccccc2-c2nnn[nH]2)cc1 (racemic) | 3.09 nM | 7.78 | –
41 | CCCc1nc2c(C)cc(C(=O)NC[C@@H](C)c3ccccc3)cc2n1Cc1ccc(-c2ccccc2-c2nnn[nH]2)cc1 | 26.3 nM | 8.30 | –
